Experimental data reported in US9603829B2, “HSP90 inhibitors with modified toxicity” (THE REGENTS OF THE UNIVERSITY OF COLORADO, a body corporate, priority 2011, dated 2017).
Read-outs that look alike come from different tables or passages of the source.

Key:
purified human NQO1 = purified human NQO1 (Homo sapiens, UniProt P15559); assay: Reduction by purified recombinant human NQO1 (HPLC); format: biochemical; conditions: 50 μM, NADH 200 μM, rhNQO1 5 μg, 15 min; blocked by ES936
Method: To confirm bioreduction by NQO1 19Ph-GA was incubated with purified human NQO1 and analyzed by HPLC. […] Reactions with purified rhNQO1 (FIG. 14, panels A and B): 19Ph-GA (50 μM) was incubated with NADH (200 μM) in the absence and presence of purified rhNQO1 (5 μg). After 15 min reactions were stopped and analyzed by HPLC. Panel A; chromatograph overlays of 19Ph-GA, NADH (black) and 19Ph-GA, NADH and NQO1 (red). […] Panel B; chromatograph of 19Ph-GA, NADH, NQO1 and ES936. No 19Ph-GA hydroquinone formation is observed in the presence of the NQO1 inhibitor ES936.

SHSY-5Y cells = assay: MTT growth inhibition assay in SHSY-5Y dopaminergic cells; format: cell-based, human; conditions: Homo sapiens, SH-SY5Y, read-out: SHSY-5Y IC50
Method: The 19-substituted benzoquinone ansamycins were also tested in vitro for their ability to reduce the toxicity of BQAs to SH-SY5Y cells a dopaminergic model system of relevance to neurodegenerative disease. Referring to FIG. 9, toxicity of BQAs in SH-SY-5Y cells was measured using trypan blue exclusion (panel A), MTT growth inhibition assay (panel B) and annexin V/PI staining for apoptosis (panel C). Cells in A and C were treated with BQAs (5 μM) for 16 h; cells in B were treated with BQAs for 4 h then allowed to grow in drug-free medium for 72 h. […] The combination of these two properties are likely to be important to the neuroprotective properties of the 19-substituted BQAs.
Growth inhibition assays (MTT) were conducted in human SHSY-5Y cells following a 4 hr treatment with GA or 19Me-GA. Cell were allowed to grow for 72 hrs following drug treatment. The 19-methyl substituted compounds in all series were minimally toxic (see FIG. 12 for data with geldanamycin, MTT assay, results are expressed as the mean±SD, n=3).

p23/Hsp90 interaction = assay: Immunoprecipitation of p23 and Hsp90 in BT474 cells; format: cell-based, human; conditions: 5 μM, 24 hr
Method: Forward and reverse immunoprecipitation studies were performed in BT474 cells treated with DMAG analogs (5 μM) for 24 hr.

[1] = tested on: Hsp90 (Raf-1, AKT degradation and Hsp70 induction); assay: Biomarkers of Hsp90 inhibition in MDA468/NQ16 cells; format: cell-based, human; conditions: MDA468/NQ16 (high NQO1) cells
Method: (§1) The ability of 19-substituted BQAs to induce growth inhibition was measured by MTT in isogenic MDA468 (null NQO1) and MDA468/NQ16 (high NQO1) cells. […] Biomarkers of Hsp90 inhibition (Raf-1, AKT degradation and Hsp70 induction) were more pronounced in MDA468/NQ16 cells compared to MDA468 cells following treatment with 19-substituted DMAG analogs.

[2] = tested on: Hsp90 (Raf-1, AKT, CDK4, Her2 degradation, Hsp70 induction); assay: Immunoblot biomarkers of Hsp90 inhibition in BT474 cells; format: cell-based, human; conditions: for effects on clients chaperoned by cdc37 to Hsp90 (Raf1, Akt, cdc2, cdk4): cell line not given
Method: (§2) The inventors extended the studies with 19-substituted DMAG analogs to include the Her2^+ human breast cancer cell line BT474 (FIG. 15). Growth inhibition (FIG. 15, left panel) was measured in BT474 cells following treatment with analogs for 4 hr. Growth inhibition (MTT) was performed 72 h following drug treatments. Biomarkers of Hsp90 inhibition, Raf-1, AKT, CDK4 and Her2 degradation as well as Hsp70 induction were measured by immunoblot analysis in human BT474 breast cancer cells following treatment with 19-substituted DMAG analogs (5 μM) for 24 hr ([…], left panel).

[3] = tested on: primary mouse hepatocytes; assay: Hepatotoxicity in primary mouse hepatocytes (MTT); format: cell-based; conditions: 4 hr, confirmed by Trypan Blue and AST leakage
Method: The inventors next tested the effect of 19-substitution of BQAs on hepatotoxicity in isolated hepatocyte systems. Isolated primary mouse hepatocytes were grown on coated 96-well plates and exposed to BQAs for 4 h after which their survival was determined using the MTT assay.
As described above, a major obstacle in the development of BQA as drugs has been their ability to induce hepatotoxicity in preclinical studies. […] Toxicity was measured using MTT assay and confirmed using Trypan Blue and AST leakage. The data shown in FIG. 19 were generated using MTT analysis but similar readouts were obtained using either trypan blue exclusion or leakage of AST from hepatocytes.

[4] = tested on: BT474 human breast cancer cells; assay: MTT growth inhibition in BT474 cells; format: cell-based; conditions: BT474, 4 hr treatment, MTT 72 h later
Method: as §2

[5] = tested on: human pancreatic cancer cell lines (Panc-1, Panc-1/C5); assay: MTT growth inhibition in human pancreatic cancer cell lines; format: cell-based; conditions: for growth inhibitory activity: human pancreatic cancer cell lines, 4 hr treatment, 72 h growth, MTT (FIG. 16A)
Method: (§3) The inventors also examined the ability of 19 BQAs to inhibit the growth of human pancreatic cancer cell lines (FIG. 16). For growth inhibition studies (MTT) cells were treated with drugs for 4 hr and then allowed to grow for 72 h. For biomarker studies MiaPaCa2 cells were treated with DMAG analogs (5 μM) for 24 hr. 19 BQAs inhibit the growth of human pancreatic cancer cell lines (FIG. 16A, 16B) and induce biomarkers of Hsp90 inhibition (FIG. 16C) using isogenic Panc-1 (NQO1 null) and Panc-1/C5 (NQO1 expressing) cell lines.

cdc37/Hsp90 interaction = assay: Immunoprecipitation of cdc37 with Hsp90 in BT474 and MDA468/NQ16 cells; format: cell-based, human; conditions: 5 μM, 24 hr
Method: Similarly, the association of cdc37 with hsp90 was examined in BT474 cells and MDA468/NQ16 cells by immunoprecipitation following treated with analogs (5 μM) for 24 hr. […] This finding is consistent with X ray data using purified Hsp90 showing that the larger 19-phenyl substituent causes greater conformational change in the Hsp90 structure than smaller 19-substituents (not shown). This also correlates with the differential effect of 19-phenyl and 19-methyl DMAG on clients chaperoned by cdc37 to Hsp90 which include Raf1, Akt, cdc2 and cdk4 (FIGS. 8,9,10).

[6] = tested on: MiaPaCa2 human pancreatic cancer cells; assay: MTT growth inhibition in MiaPaCa2 cells; format: cell-based; conditions: for IC50: Homo sapiens
Method: as §3

[7] = tested on: MDA468/NQ16 breast cancer cells; assay: MTT growth inhibition in isogenic MDA468/NQ16 and MDA468 cells; format: cell-based, human; conditions: MDA468/NQ16, 4 hours treatment, 72 h growth, MTT
Method: The 19-substituted benzoquinone ansamycins were also tested in vitro for their ability to inhibit growth similar to DMAG in human breast cancer cells (FIG. 10). MDA468/NQ16 breast cancer cells were treated with 19-substituted DMAG analogs for 4 hours, after which drug-containing media was removed and cells were allowed to grow for an additional 72 h. Cell viability was determined using the MTT assay.
as §1

Hsp90 = assay: Biomarkers of Hsp90 inhibition in MiaPaCa2 cells; format: cell-based, human; conditions: 5 μM, 24 hr (FIG. 16C)
Method: as §3

yeast Hsp90 ATPase = yeast Hsp90 ATPase (Saccharomyces cerevisiae, UniProt P02829); assay: Purified recombinant yeast Hsp90 ATPase activity; format: biochemical; conditions: in the absence and presence of NQO1
yeast Hsp90 ATPase, sequence (P02829 whole entry): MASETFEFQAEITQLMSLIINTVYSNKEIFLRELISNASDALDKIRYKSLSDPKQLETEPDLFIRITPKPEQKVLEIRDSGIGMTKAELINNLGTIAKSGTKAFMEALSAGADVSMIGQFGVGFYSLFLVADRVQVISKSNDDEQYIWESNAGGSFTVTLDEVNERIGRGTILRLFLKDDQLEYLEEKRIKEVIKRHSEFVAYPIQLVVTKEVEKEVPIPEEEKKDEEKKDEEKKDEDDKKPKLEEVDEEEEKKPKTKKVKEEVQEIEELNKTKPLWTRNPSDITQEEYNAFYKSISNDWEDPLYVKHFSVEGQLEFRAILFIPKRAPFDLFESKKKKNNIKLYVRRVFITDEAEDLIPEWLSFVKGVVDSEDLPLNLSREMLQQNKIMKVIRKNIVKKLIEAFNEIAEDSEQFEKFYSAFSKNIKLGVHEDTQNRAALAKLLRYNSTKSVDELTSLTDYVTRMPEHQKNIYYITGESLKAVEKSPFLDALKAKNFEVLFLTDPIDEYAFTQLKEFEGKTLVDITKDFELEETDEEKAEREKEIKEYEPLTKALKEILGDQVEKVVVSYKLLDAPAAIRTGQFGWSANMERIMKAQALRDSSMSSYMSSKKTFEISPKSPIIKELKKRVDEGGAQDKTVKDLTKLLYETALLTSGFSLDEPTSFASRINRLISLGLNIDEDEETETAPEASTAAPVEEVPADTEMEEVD
Method: In vitro testing was performed to verify that 19-substitutions prevent GSH conjugation of benzoquinone ansamycins (BQAs). Referring to FIG. 6, reactions were performed in 50 mM potassium phosphate buffer, pH 7.4 containing 50 μM benzoquinone ansamycin in the absence (solid bars) and presence (hatched bars) of 5 mM GSH. At the indicated times (GM series, 15 min; DMAG series, 3 hr; AAG series, 16 hr) the reactions were stopped and BQA concentrations were determined by HPLC. […] The 19-substituted benzoquinone ansamycins were also tested in vitro for inhibition of Hsp90. Referring to FIG. 7, purified recombinant yeast Hsp90 ATPase activity was measured in reactions with 19-substituted BQAs in the absence and presence of NADPH quinone oxidoreductase 1 (NQO1). Results are expressed as percent of DMSO control (mean±SD n=3).
The parent BQA's inhibited purified Hsp90 much more readily in the presence of NQO1 to generate the hydroquinone and this could be blocked by the inhibitor ES936. […] This could be blocked by the NQO1 inhibitor ES936.

purified human NQO1, sequence (P15559 whole entry): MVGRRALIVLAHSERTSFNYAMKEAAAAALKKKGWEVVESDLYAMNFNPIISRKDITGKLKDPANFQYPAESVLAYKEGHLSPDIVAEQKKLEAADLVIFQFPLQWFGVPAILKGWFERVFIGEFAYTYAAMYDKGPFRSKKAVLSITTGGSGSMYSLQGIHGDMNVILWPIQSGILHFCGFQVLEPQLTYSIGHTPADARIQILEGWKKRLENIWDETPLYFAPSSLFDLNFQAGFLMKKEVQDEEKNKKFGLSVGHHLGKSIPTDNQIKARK

Row | SMILES | reduction to hydroquinone by NQO1 (purified human NQO1) | IC50 (SHSY-5Y cells) [µM] | interaction of p23 and Hsp90 (p23/Hsp90 interaction) | Hsp70 induction [1] | Raf-1 and AKT degradation [1] | effects on clients chaperoned by cdc37 to Hsp90 (Raf1, Akt, cdc2, cdk4) [2] | hepatotoxicity [3] | growth inhibition [4] | sensitivity of Panc-1/C5 (high NQO1) relative to NQO1-null Panc-1 cells ([5]; FIG. 16B) | growth inhibitory activity [5] | interaction of cdc37 with Hsp90 (cdc37/Hsp90 interaction) | IC50 ([6]; MIA PaCa-2, read-out: IC50 MiaPaCa2) [µM] | potency relative to 19Me-DMAG, growth inhibition ([6]; MiaPaCa2 cells) | potency at killing breast cancer cells relative to DMAG [7] | induction of biomarkers of Hsp90 inhibition (Hsp90) | Hsp70 induction ([2]; BT474, 5 μM, 24 hr, immunoblot) | effects on Hsp90 client proteins (Raf-1, AKT, Her2, CDK4) ([2]; BT474, 5 μM, 24 hr, immunoblot) | IC50 (SHSY-5Y cells; 4 hr treatment, then 72 hrs growth, MTT) [µM] | IC50 ([6]; MIA PaCa-2, 4 hr treatment, then 72 h growth, MTT, read-out: IC50 MiaPaCa2) [µM] | inhibition of Hsp90 ATPase activity (yeast Hsp90 ATPase)
1 | COC1=C2C[C@@H](C)C[C@H](OC)[C@H](O)[C@@H](C)/C=C(\C)[C@H](OC(N)=O)[C@@H](OC)/C=C\C=C(/C)C(=O)NC(=C(c3ccccc3)C1=O)C2=O [19Ph-GA, 19-phenylgeldanamycin] | reduced to the more polar 19Ph-GA hydroquinone | > 10 |  |  |  |  |  |  |  |  |  |  |  |  |  |  |  |  |  | 
2 | CO[C@H]1/C=C\C=C(/C)C(=O)NC2=C(c3ccccc3)C(=O)C(NCCN(C)C)=C(C[C@@H](C)C[C@H](OC)[C@H](O)[C@@H](C)/C=C(\C)[C@@H]1OC(N)=O)C2=O [19Ph-DMAG, (4E,6Z,8S,9S,10E,12S,13R,14S,16R)-19-(2-(Dimethylamino)ethylamino)-13-hydroxy-8,14-dimethoxy-4,10,12,16-tetramethyl-3,20,22-trioxo-21-phenyl-2-azabicyclo[16.3.1]docosa-1 (21),4,6,10,18-pentaen-9-yl carbamate] |  | > 20 | disrupted the interaction of p23 and Hsp90 | equal Hsp70 induction compared to DMAG | more pronounced Raf-1 and AKT degradation | marked | no toxicity was observed | induced growth inhibition | more sensitive | marked growth inhibitory activity | disrupted the interaction of cdc37 with Hsp90 | 3 ± 0.6 | greater than 10 fold | greater potency at killing breast cancer cells than DMAG | pronounced induction of biomarkers of Hsp90 inhibition |  |  |  |  | 
3 | CO[C@H]1/C=C\C=C(/C)C(=O)NC2=C(C)C(=O)C(NCCN(C)C)=C(C[C@@H](C)C[C@H](OC)[C@H](O)[C@@H](C)/C=C(\C)[C@@H]1OC(N)=O)C2=O [19Me-DMAG, (4E,6Z,8S,9S,10E,12S,13R,14S,16R)-19-(2-(Dimethylamino)ethylamino)-13-hydroxy-8,14-dimethoxy-4,10,12,16,21-pentamethyl-3,20,22-trioxo-2-azabicyclo[16.3.1]docosa-1(21),4,6,10,18-pentaen-9-yl carbamate] |  |  | disrupted the interaction of p23 and Hsp90 | equivalent Hsp70 response to 19-phenyl DMAG | much less pronounced effect on Hsp90 Raf1 and Akt | had little effect | no toxicity was observed | no growth inhibition could be observed |  | little effect | had little effect |  |  |  | little effect | robust Hsp70 response | diminished effects on Hsp90 client proteins | > 20 | 35.8 ± 5.5 | 
4 | C=CCNc1c(O)cc2c(O)c1C[C@@H](C)C[C@H](OC)[C@H](O)[C@@H](C)/C=C(\C)[C@H](OC(N)=O)[C@@H](OC)/C=C\C=C(/C)C(=O)N2 [17AAG hydroquinone] |  |  |  |  |  |  |  |  |  |  |  |  |  |  |  |  |  |  |  | inhibition of yeast Hsp90 ATPase activity
